Results: US11629201B2, “PSMA-binding agents and uses thereof” (ITM Isotope Technologies Munich SE, priority 2017, dated 2023)
Several values for one entry are separate records, joined by “and”; a condition that tells them apart may be missing. Equal values may be shown once.

Assays:
[1] = test system: PC-3 PIP/flu tumor-bearing mice; assay: PET/CT imaging of PC-3 PIP/flu tumor-bearing mice; assay type: in vivo; conditions: 16 h after injection
Protocol: PET/CT Imaging Studies. PET/CT experiments were performed at 1 h, 4 h and 24 h after injection of the radioligands (5 MBq/l nmol). Mice were injected into a lateral tail vein with the respective radioligand (5 MBq, 1 nmol, 100 μL) diluted in saline containing 0.05% BSA. PET/CT scans were performed using a small-animal PET/CT scanner (G8, Perkin Elmer, Massachusetts, U.S.) as previously reported. The PET scans lasted for 10 min and were followed by a CT scan of 1.5 min. During the in vivo scans, the mice were anesthetized with a mixture of isoflurane and oxygen. Reconstruction of acquired data was performed using the software of the provider of the G8 scanner. All images were prepared using VivoQuant post-processing software (version 3.0, inviCRO Imaging Services and Software, Boston USA). The images were prepared by cutting 2% of the lower scale to make the tumors, liver and kidneys best visible.

[2] = test system: PC-3 PIP/flu tumor-bearing mice; assay: Biodistribution studies in PC-3 PIP/flu tumor-bearing mice; conditions: for Tu-to-muscle / Tumor-to-blood / Tumor-to-kidney / Tumor-to-liver: PC-3 PIP tumor
[3] = test system: PSMA-positive PC-3 PIP cells; assay: Cell uptake and internalization in PSMA-positive PC-3 PIP cells; assay type: cell-based
[4] = n-Octanol/PBS distribution coefficient (log D); assay type: physicochemical; conditions: radiolabeled ligand, 50 MBq/nmol, PBS pH 7.4
Protocol: The radioligand (0.5 MBq; 10 pmol, 25 μL) was then added to a reagent tube containing 1475 μL of PBS pH 7.4 and 1500 μL of n-octanol. The vials were vortexed vigorously followed by a centrifugation step for phase separation.
Determination of n-Octanol/PBS Distribution Coefficients (Log D Values). The distribution coefficients (log D values) of the ^64Cu-labeled radioligands (50 MBq/nmol) were determined by a shake-flask method using liquid-liquid extraction followed by phase separation as previously reported. Three experiments were performed with five replicates for each radioligand. Statistical significance of the data (p<0.05) was evaluated using an unpaired t-test (GraphPad Prism software, version 7).
Determination of n-Octanol/PBS Distribution Coefficients (Log D Values). […] A sample of the radioligands was mixed with phosphate-buffered saline (PBS) and n-octanol followed by vigorous vortexing. […] Three experiments were performed with five replicates for each compound.

human plasma proteins = assay: Ultrafiltration assay, binding to human plasma proteins; conditions: different dilutions of human plasma
Protocol: Therefore, the compounds were labeled with ^177Lu at a specific activity of 50 MBq/nmol and incubated in human plasma samples or PBS at room temperature. The free and plasma-bound fractions were separated using a centrifree ultrafiltration device (4104 centrifugal filter units [Millipore]; 30000 Da nominal molecular weight limit, methylcellulose micropartition membranes). The incubated solution was loaded to the ultrafiltration device and centrifuged at 2500 rpm for 40 min at 20° C. Samples from the filtrate were taken an analyzed for radioactivity in a gamma-counter. The amount of plasma-bound compound was calculated as the fraction of radioactivity measured in the filtrate relative to the corresponding loading solution (set to 100%).
Determination of Albumin-binding Properties. The binding of the radioligands to human plasma proteins was determined by an ultrafiltration assay. […] Three independent experiments were performed in duplicates with both radioligands and the data was fitted to a semi-logarithmic plot (non-linear regression, one-site, specific binding) to obtain the half maximum binding (B50) in GraphPad Prism software (version 7).
The ^177Lu-labeled PSMA ligands (50 MBq/nmol) were diluted in mouse plasma (Rockland, USA) and human plasma (Stiftung Blutspende SRK Aargau-Solothurn, Switzerland), respectively, and incubated for 15 min at room temperature. In addition, the radioligands were diluted in PBS (buffer solution without proteins) as a control experiment. Aliquots of the solutions were loaded onto an ultrafiltration device and centrifuged. The filtered activity was measured with a γ-counter and used for calculating the plasma protein-bound activity (retained on the filter membrane) as the percentage of total added activity. […] Statistical analysis (one-way ANOVA with Bonferroni's multiple comparison post-test) was performed using GraphPad Prism software, version 7. A p-value of <0.05 was considered statistically significant.

[5] = Stability of radioligands over time by RP-HPLC; assay type: physicochemical
Protocol: Quality control of ^64Cu-labeled PSMA ligands (250 MBq in 120 μL; 50 MBq/nmol) was determined immediately after preparation (t=0 h) using RP-HPLC. The reaction mixtures were diluted in saline to an activity concentration of 250 MBq/500 μL and incubated at room temperature. The integrity of the compounds was investigated over one day (t=1 h, 4 h and 24 h, respectively). The amount of intact radioligand was quantified by integration of the product peak of the HPLC chromatograms in relation to the sum of all radioactive peaks of degradation products of unknown structure and traces of released ^64Cu which were set to 100%.
The stability of the radioligands was determined over time using RP-HPLC. […] The radiolabeling efficiency of the ligands was determined immediately after preparation (t=0 h) and the integrity of the compounds was investigated after incubation for various periods (t=1 h, 4 h and 24 h, respectively) at room temperature. The amount of intact compound was quantified by integration of the product peak of the HPLC chromatograms in relation to the sum of all radioactive peaks of degradation products of unknown structure and traces of free ^177Lu, which were set to 100%.

[6] = test system: PSMA-negative PC-3 flu cells; assay: Cell uptake in PSMA-negative PC-3 flu cells; assay type: cell-based
Protocol: Cells were grown in RPMI cell culture medium supplemented with 10% fetal calf serum, L-glutamine, antibiotics and puromycin (2 μg/mL) at 37° C. and 5% CO2 (standard conditions). Routine cell culture was performed twice a week using PBS/EDTA (2 mM) for washing the cells and trypsin for detachment of the cells. The cells were seeded in 12-well plates (˜3×10^5 cells in 2 mL RPMI medium/well) allowing adhesion and growth overnight at standard conditions. The supernatant was removed and the cells washed with PBS pH 7.4 prior to the addition of RPMI medium without supplements (975 μL/well). […] After incubation, the cells were washed three times with ice-cold PBS and the total uptake of the radioligands was determined (PSMA-bound fraction on the surface and internalized fraction). The fraction of internalized radioligand was evaluated in cells washed with ice-cold PBS, followed by a 10 min incubation with stripping buffer (0.05 M glycine stripping buffer in 100 mM NaCl, pH 2.8) and an additional washing step with ice-cold PBS. […] After homogenization of the cell suspensions, the protein concentration was determined for each sample using a Micro BCA Protein Assay kit (Pierce, Therma Scientific). The results were expressed as percentage of total added radioactivity per […]. […]

PC-3 PIP tumor = assay: Therapy study in PC-3 PIP tumor-bearing mice; assay type: in vivo; conditions: for TGDI2 / TGDI5: control = 1
Source text: Mice of Groups B and D received 2 MBq of the radioligand (1 nmol/mouse), whereas mice of Groups C and E received 5 MBq of the radioligand (1 nmol/mouse). The mice were monitored by measuring body weights and the tumor size every other day over 12 weeks. Mice were euthanized when pre-defined endpoint criteria were reached, or when the study was terminated at Day 84. The relative body weight (RBW) was defined as [BWx/BW0], where BWx is the body weight in gram at a given day x and BW0 the body weight in gram at day 0. The tumor dimension was determined by measuring the longest tumor axis (L) and its perpendicular axis (W) with a digital caliper. The tumor volume (V) was calculated according to the equation [V=0.5*(L*W2)]. The relative tumor volume (RTV) was defined as [TVx/TV0], where TVx is the tumor volume in mm3 at a given day x and TV0 the tumor volume in mm3 at Day 0.
The efficacy of the radionuclide therapy was expressed as the tumor growth delay (TGDx), which was calculated as the time required for the tumor volume to increase x-fold over the initial volume at the Day 0. The tumor growth delay index [TGDIx=TGDx(T)/TGDx(C)] was calculated as the TGDx ratio of treated mice (T) over control mice (C) for a 2-fold (x=2, TGD2) and 5-fold (x=5, TGD5) increase of the initial tumor volume. As a measure to identify undesired side effects, body weights were compared at the day when the first control mouse had to be euthanized. After euthanasia, kidneys, liver and the brain were collected and weighed. The organ ratios (kidney-to-brain and liver-to-brain) were calculated using the organ masses obtained at the day of euthanasia.
The data was analyzed for significance as indicated in the result part using a one-way ANOVA with Tukey's multiple comparison post-test using GraphPad Prism software (version 7). A value of p<0.05 was considered statistically significant. Survival analysis was performed with Kaplan-Meier curves and a log-rank tests (Mantel Cox).

mouse plasma proteins = assay: Ultrafiltration assay, binding to mouse plasma proteins; assay type: in vitro ADME
Protocol: Filter Assay. […] In addition, the radioligands were diluted in PBS (buffer solution without proteins) as a control experiment. Aliquots of the solutions were loaded onto an ultrafiltration device and centrifuged. The filtered activity was measured with a γ-counter and used for calculating the plasma protein-bound activity (retained on the filter membrane) as the percentage of total added activity. […] Statistical analysis (one-way ANOVA with Bonferroni's multiple comparison post-test) was performed using GraphPad Prism software, version 7. A p-value of <0.05 was considered statistically significant.

[7] = non-decay-corrected biodistribution data up to 192 h p.i.

## Cc1ccc(CCCC(=O)NCCCC[C@H](NC(=O)CCC(C(=O)O)N2CCN(CC(=O)O)CCN(CC(=O)O)CC2)C(=O)NC[C@H]2CC[C@H](C(=O)N[C@H](Cc3ccc4ccccc4c3)C(=O)NCCCC[C@@H](NC(=O)N[C@H](CCC(=O)O)C(=O)O)C(=O)O)CC2)cc1 (some centres unmarked) [^64Cu-PSMA-ALB-89, metal not drawn]
[1]
  tumor-to-kidney ratio of accumulated radioligand (visual examination): > 1
[2]; 1 h p.i.
  Tu-to-muscle: 9.0 ± 1.13
  Tumor-to-blood: 0.91 ± 0.02
  Tumor-to-kidney: 0.40 ± 0.02
  Tumor-to-liver: 3.37 ± 0.31
[2]; 4 h p.i.
  Tu-to-muscle: 36.3 ± 2.25
  Tumor-to-blood: 3.61 ± 0.30
  Tumor-to-kidney: 0.70 ± 0.04
  Tumor-to-liver: 13.3 ± 1.20
[2]; 24 h p.i.
  Blood: < 3.2 % IA/g
  PC-3 PIP Tumor: 97.1±7.01 % IA/g
  Tu-to-muscle: 200±38.2
  Tumor-to-blood: 31.3 ± 3.82
  Tumor-to-kidney: 2.68 ± 0.36
  Tumor-to-liver: 23.6 ± 3.37
[3]; 2 h
  cell uptake: ~46%
  internalized fraction: ~14%
[3]; 4 h
  cell uptake: ~52%
  internalized fraction: ~14%
[4]; n-octanol/PBS
  logD: -2.3 ± 0.7
Human plasma proteins
  half-maximum binding (B50), [HSA]-to-[radioligand] ratio: 454 and 770

## O=C([O-])CN1CCN(CC(=O)[O-])CCN(CC(=O)NCC2CCC(C(=O)N[C@@H](Cc3ccc4ccccc4c3)C(=O)NCCCC[C@H](NC(=O)N[C@@H](CCC(=O)O)C(=O)O)C(=O)O)CC2)CCN(CC(=O)[O-])CC1.[177Lu+3] (some centres unmarked) [^177Lu-PSMA-617, reference compound]
[5]; after 4 h, absence of L-ascorbic acid
  intact compound: ~86%
[5]; after 24 h, absence of L-ascorbic acid
  intact compound: < 2%
[5]; after 24 h, with L-ascorbic acid
  intact compound: > 98%
[6]
  uptake in PC-3 flu cells: below 0.5%
[2]; 4 h p.i.
  PC-3 PIP Tumor: ~56 % IA/g
[2]; 24 h p.i.
  Kidneys: < 1 % IA/g
  Tumor-to-blood: 2730 ± 195
  Tumor-to-kidney: 49 ± 3.7
  Tumor-to-liver: 528 ± 51
[2]; 48 h p.i.
  Tumor-to-blood: 3776 ± 585
  Tumor-to-kidney: 81 ± 11
  Tumor-to-liver: 710 ± 97
[2]; 192 h p.i.
  PC-3 PIP Tumor: ~20 % IA/g
[2]; [7]
  AUC PC-3 PIP tumor: 3691 ± 156 % IA/g · h
  AUC blood: 52 ± 1.5 % IA/g · h
  AUC kidneys: 99 ± 11 % IA/g · h
  AUC liver: 6.2 ± 1.6 % IA/g · h
[2]; tumor to blood
  Ratio of AUCs AUCTu-to-AUCBl: 71
[2]; tumor to kidneys
  Ratio of AUCs AUC-Tu-to-AUC-Ki: 37
[2]; tumor to liver
  Ratio of AUCs AUCTu-to-AUCLi: 592
[3]; 4 h incubation, PC-3 PIP cells
  cell uptake: 58%
  internalized fraction: 12%
[4]
  n-octanol/PBS distribution coefficient (log D value): −4.4±0.15
PC-3 PIP tumor; 2 MBq/mouse (Groups B, D)
  first mouse of group euthanized: 12 days
  median survival: 19 days
  TGDI2: 0.8 and 0.8 ± 0.3
  TGDI5: 1.4 and 1.4 ± 0.1
PC-3 PIP tumor; 5 MBq/mouse (Groups C, E)
  first mouse of group euthanized: 26 days
  median survival: 32 days
  TGDI2: 2.1 ± 0.3
  TGDI5: 2.5 ± 0.3
Mouse plasma proteins
  plasma protein-bound fraction: 9.3±1.1%
